# Experimental data from article PMC10030653, “ClpC2 protects mycobacteria against a natural antibiotic targeting ClpC1-dependent protein degradation” (Communications Biology, 2023).
# Numbered stars: 1 amine (or outer) side, 2 acyl side, 3 side chain; on linkers, the order of the positions; unused ones are H or OH. Square brackets hold non-standard residues; d marks the D form. Peptide text beside a SMILES is read from it. X1 = CC(C)([C@@H]1CO1)n1cc([C@@H](O)[C@H](N[*:1])C(=O)[*:2])c2ccccc21; Ala(3R-Me,3-isobutenyl) = CC(C)=C[C@@H](C)[C@H](N)C(=O)O; NMeLeu(5-OH,4R) = CN[C@@H](C[C@@H](C)CO)C(=O)O; Phe(βR-OMe) = CO[C@H](c1ccccc1)[C@H](N)C(=O)O; NMeL = CN[C@@H](CC(C)C)C(=O)O
# Tests used:
# [1] = test system: ClpC1 hexamer/ClpP1P2 tetradecamer (ClpC1P); assay: FITC-casein degradation assay; type: biochemical, Mycobacterium tuberculosis; conditions: 2 μM CymA
# Protocol: Degradation of FITC-casein (Sigma) was carried out in 50 mM HEPES-KOH pH 7.1, 150 mM KCl, 20 mM MgCl2, 10% glycerol by 0.5 μM ClpC1 hexamer and 0.8 μM ClpP1P2 tetradecamer with the addition of 0.4 mM activator peptide benzyloxycarbonyl-L-leucyl-L-leucinal (PeptaNova), 0.5 mM DTT, 1 U/ml creatine phosphokinase, 20 mM phosphocreatine, 10 mM ATP at 37 °C. […] Whereas the effect of an excess of ClpC2 on the degradation of FITC-casein (10 μM) was carried out in the presence of 100 μM ClpC2. Fluorescence intensity increases upon degradation of FITC-casein as a consequence of fluorophore dequenching was monitored using the BioTek Synergy 2 Plate Reader with a 485/20 nm band-pass […] filter. Rates of degradation were determined from the initial slopes and used to determine the CymA-induced stimulation of ClpC1P activity at the different concentrations of ClpC2.
# [2] = test system: Staphylococcus aureus; conditions: cited from earlier work
# Description: (§1) CymA is a cyclic heptapeptide that is synthesised by the marine bacterium Streptomyces sp. CNB-982[33]–[35].
# [3] = test system: Escherichia coli; conditions: cited from earlier work
# Description: as §1
# [4] = test system: clpC2 mRNA; assay: RT-qPCR of clpC2 expression after CymA; type: cell-based, Mycobacterium smegmatis; conditions: Msm, 150 nM CymA; for Cq value ClpC2 / Cq value RpoB (reference gene): 1 h
# [5] = test system: ClpC2; type: cell-based, Mycobacterium smegmatis; conditions: Msm, 150 nM CymA, around 8 h after addition
# [6] = test system: ClpC2 / clpC2 operator DNA; assay: EMSA, ClpC2 binding to clpC2 operator DNA; design: species or system Mycobacterium tuberculosis; conditions: for fraction of DNA bound to ClpC2: 1 μM CymA
# [7] = test system: ClpC1; conditions: Msm, 150 nM CymA, 0-8 h
# [8] = test system: Mycobacterium smegmatis; assay: Growth curves of Msm strains with CymA
# Protocol: Mycobacterium smegmatis MC^2155 SMR5 and derived strains were routinely grown at 37 °C with shaking in DIFCO™ Middlebrook7H9 broth (BD) supplemented with 0.05% Tween 80 and 0.2% glycerol. The antibiotics apramycin (50 µg/ml) or hygromycin B (100 µg/ml) were added as needed. […] The DMSO concentration of cultures was maintained at less than 1% in all instances.
# Msm cultures were diluted to an OD600 of 0.005 in 7H9. […] The cultures were grown at 37 °C with shaking (200 rpm) and the culture growth monitored by periodically measuring the OD600.
# [9] = biological target: Mtb ClpC1 NTD (ClpC1^1-145) (Mycobacterium tuberculosis, UniProt P9WPC9); assay: biochemical; type: binding
# [10] = test system: mycobacteria; conditions: cited from earlier work
# [11] = test system: ClpC1 NTD; conditions: cited from earlier work
# [12] = test system: ClpC2; type: cell-based, Mycobacterium smegmatis; conditions: Msm WT, OD600 0.5, 150 nM CymA, 37 °C, from 1 h to 8 h after addition
# [13] = test system: ClpC1; conditions: cited from earlier work
# Chain of Mtb ClpC1 NTD (ClpC1^1-145) (P9WPC9 1-145): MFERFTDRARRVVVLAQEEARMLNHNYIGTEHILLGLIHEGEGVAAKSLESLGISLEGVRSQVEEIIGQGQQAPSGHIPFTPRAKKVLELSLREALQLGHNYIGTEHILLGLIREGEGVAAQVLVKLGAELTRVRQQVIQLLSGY
structure (smiles),measurement,setting,value
"CO[C@H](c1ccccc1)[C@@H]1NC(=O)[C@H](C)NC(=O)[C@H](C[C@@H](C)CO)N(C)C(=O)[C@H]([C@H](O)c2cn(C(C)(C)[C@@H]3CO3)c3ccccc23)NC(=O)[C@H]([C@H](C)C=C(C)C)NC(=O)[C@H](CC(C)C)N(C)C(=O)[C@H](C(C)C)NC1=O [CymA, cyclomarin A] (cyclo(A[Phe(βR-OMe)]V[NMeL][Ala(3R-Me,3-isobutenyl)][X1][NMeLeu(5-OH,4R)]))",FITC-casein degradation rate,"[1]; 0 μM ClpC2, 37 °C, replicate 1",8.073 min⁻¹
same,FITC-casein degradation rate,"[1]; 0 μM ClpC2, 37 °C, replicate 2",7.688 min⁻¹
same,FITC-casein degradation rate,"[1]; 0 μM ClpC2, 37 °C, replicate 3",7.795 min⁻¹
same,FITC-casein degradation rate,"[1]; 0.2 μM ClpC2, 37 °C, replicate 1",7.586 min⁻¹
same,FITC-casein degradation rate,"[1]; 0.2 μM ClpC2, 37 °C, replicate 2",7.529 min⁻¹
same,FITC-casein degradation rate,"[1]; 0.2 μM ClpC2, 37 °C, replicate 3",6.77 min⁻¹
same,FITC-casein degradation rate,"[1]; 0.5 μM ClpC2, 37 °C, replicate 1",6.271 min⁻¹
same,FITC-casein degradation rate,"[1]; 0.5 μM ClpC2, 37 °C, replicate 2",6.851 min⁻¹
same,FITC-casein degradation rate,"[1]; 0.5 μM ClpC2, 37 °C, replicate 3",6.213 min⁻¹
same,FITC-casein degradation rate,"[1]; 1 μM ClpC2, 37 °C, replicate 1",6.248 min⁻¹
same,FITC-casein degradation rate,"[1]; 1 μM ClpC2, 37 °C, replicate 2",6.426 min⁻¹
same,FITC-casein degradation rate,"[1]; 1 μM ClpC2, 37 °C, replicate 3",5.933 min⁻¹
same,FITC-casein degradation rate,"[1]; 2 μM ClpC2, 37 °C, replicate 1",4.9721 min⁻¹
same,FITC-casein degradation rate,"[1]; 2 μM ClpC2, 37 °C, replicate 2",4.555 min⁻¹
same,FITC-casein degradation rate,"[1]; 2 μM ClpC2, 37 °C, replicate 3",5.043 min⁻¹
same,FITC-casein degradation rate,"[1]; 4 μM ClpC2, 37 °C, replicate 1",4.194 min⁻¹
same,FITC-casein degradation rate,"[1]; 4 μM ClpC2, 37 °C, replicate 2",4.045 min⁻¹
same,FITC-casein degradation rate,"[1]; 4 μM ClpC2, 37 °C, replicate 3",3.662 min⁻¹
same,FITC-casein degradation rate,"[1]; 8 μM ClpC2, 37 °C, replicate 1",3.41 min⁻¹
same,FITC-casein degradation rate,"[1]; 8 μM ClpC2, 37 °C, replicate 2",3.29 min⁻¹
same,FITC-casein degradation rate,"[1]; 8 μM ClpC2, 37 °C, replicate 3",3.596 min⁻¹
same,FITC-casein degradation rate,"[1]; 12 μM ClpC2, 37 °C, replicate 1",3.454 min⁻¹
same,FITC-casein degradation rate,"[1]; 12 μM ClpC2, 37 °C, replicate 2",2.89 min⁻¹
same,FITC-casein degradation rate,"[1]; 12 μM ClpC2, 37 °C, replicate 3",2.828 min⁻¹
same,FITC-casein degradation rate,"[1]; 18 μM ClpC2, 37 °C, replicate 1",3.091 min⁻¹
same,FITC-casein degradation rate,"[1]; 18 μM ClpC2, 37 °C, replicate 2",2.23 min⁻¹
same,FITC-casein degradation rate,"[1]; 18 μM ClpC2, 37 °C, replicate 3",2.386 min⁻¹
same,activity against Staphylococcus aureus,[2],little activity
same,activity against Escherichia coli,[3],little activity
same,Cq value ClpC2,[4]; replicate 1,21.9726
same,Cq value RpoB (reference gene),[4]; replicate 1,23.9629
same,Cq value ClpC2,[4]; replicate 2,21.7648
same,Cq value RpoB (reference gene),[4]; replicate 2,24.1812
same,Cq value ClpC2,[4]; replicate 3,20.9483
same,Cq value RpoB (reference gene),[4]; replicate 3,23.5984
same,increase in clpC2 mRNA,"[4]; one hour, normalised to rpoB, biological n = 3, P = 0.0015 (two-tailed unpaired t test)",263 fold
same,ClpC2 level in excess of ClpC1,[5],84 fold
same,fraction of DNA bound to ClpC2,"[6]; 1 nM ClpC2, replicate 1",0
same,fraction of DNA bound to ClpC2,"[6]; 1 nM ClpC2, replicate 2",0.02788
same,fraction of DNA bound to ClpC2,"[6]; 1 nM ClpC2, replicate 3",0.04348
same,fraction of DNA bound to ClpC2,"[6]; 2 nM ClpC2, replicate 1",0
same,fraction of DNA bound to ClpC2,"[6]; 2 nM ClpC2, replicate 2",0.03704
same,fraction of DNA bound to ClpC2,"[6]; 2 nM ClpC2, replicate 3",0.05455
same,fraction of DNA bound to ClpC2,"[6]; 5 nM ClpC2, replicate 1",0.09091
same,fraction of DNA bound to ClpC2,"[6]; 5 nM ClpC2, replicate 2",0.08
same,fraction of DNA bound to ClpC2,"[6]; 5 nM ClpC2, replicate 3",0.06873
same,fraction of DNA bound to ClpC2,"[6]; 10 nM ClpC2, replicate 1",0.1629
same,fraction of DNA bound to ClpC2,"[6]; 10 nM ClpC2, replicate 2",0.1615
same,fraction of DNA bound to ClpC2,"[6]; 10 nM ClpC2, replicate 3",0.1694
same,fraction of DNA bound to ClpC2,"[6]; 15 nM ClpC2, replicate 1",0.2974
same,fraction of DNA bound to ClpC2,"[6]; 15 nM ClpC2, replicate 2",0.2686
same,fraction of DNA bound to ClpC2,"[6]; 15 nM ClpC2, replicate 3",0.2612
same,fraction of DNA bound to ClpC2,"[6]; 25 nM ClpC2, replicate 1",0.5671
same,fraction of DNA bound to ClpC2,"[6]; 25 nM ClpC2, replicate 2",0.4781
same,fraction of DNA bound to ClpC2,"[6]; 25 nM ClpC2, replicate 3",0.3902
same,fraction of DNA bound to ClpC2,"[6]; 50 nM ClpC2, replicate 1",0.7982
same,fraction of DNA bound to ClpC2,"[6]; 50 nM ClpC2, replicate 2",0.7344
same,fraction of DNA bound to ClpC2,"[6]; 50 nM ClpC2, replicate 3",0.731
same,effect of CymA on ClpC2-operator DNA binding,"[6]; EMSA, 1 µM CymA, room temperature, 20 min, pH 7.5",noticeable inhibitory effect on the interaction between ClpC2 and its operator site
same,ClpC1 level after CymA,[7],remained fairly constant
same,growth of ΔclpC2 with CymA,"[8]; Msm ΔclpC2, sub-MIC50 CymA (150 nM), 7H9, 37 °C, vs parent strain",diminished growth compared to the parent strain
same,growth of comclpC2 F99A with CymA,"[8]; Msm ΔclpC2 complemented with clpC2 F99A, 150 nM CymA, 7H9, 37 °C",attenuated growth upon exposure to CymA
same,growth of comclpC2 R188A/R192A with CymA,"[8]; Msm ΔclpC2 complemented with clpC2 R188A/R192A, in the presence of CymA",lack of growth impairment
same,growth of comclpC2 WT with CymA,"[8]; Msm ΔclpC2 complemented with clpC2 WT, 150 nM CymA, 7H9, 37 °C",the WT phenotype was restored
same,Kd,[9],2.3 nM
same,activity against mycobacteria,[10],effective against mycobacteria
same,target binding domain,[11],specifically target ClpC1 NTD
same,ClpC2 Western blot signal,[12],increases by several orders of magnitude
same,effect on ClpC1 ATPase and proteolytic activity,[13],enhance the ATPase and proteolytic activity as well as reduce substrate specificity of ClpC1
